# Assay: Antioxidant activity assessed as DPPH radical scavenging activity incubated at room temperature for 20 mins by UV-visible spectrophotometry
# Conditions: not given
row,Structure (SMILES),IC50 [mM]
1,O=C(O)c1ccccc1O [SALICYLIC ACID],278

# Same assay, conditions: DPPH radical (cell-free)
row,Structure (SMILES),IC50 [mM]
1,O=c1c(O)c(/C=C/c2ccccc2)oc2ccccc12,0.039
2,O=C(/C=C\C=C/c1ccc2c(c1)OCO2)N1CCCCC1,90.7
3,Cc1ccc(-c2cc(=O)c3ccccc3o2)cc1,6.34
4,O=C(/C=C/C=C/c1ccccc1)c1ccccc1,113
5,O=C(/C=C/c1ccc(Cl)cc1)c1ccccc1O,6.1
6,COc1ccc(/C=C/C(=O)c2ccccc2O)cc1,190
7,O=C(/C=C/C=C/c1ccccc1)c1ccccc1O,7.13
8,CC(=O)c1ccccc1O,155
9,O=c1c(O)c(-c2ccco2)oc2ccccc12,0.034
10,CC(C)(C)c1ccc(-c2cc(=O)c3ccc(O)cc3o2)cc1,44.3
11,CC(C)(C)c1ccc(/C=C/C(=O)c2ccccc2O)cc1,17.1
12,O=C(/C=C/c1ccco1)c1ccccc1O,4.27
13,Cc1ccc(/C=C/C(=O)c2ccccc2O)cc1,7.72
14,O=C(/C=C/c1ccccc1)c1ccccc1O [2'-HYDROXYCHALCONE],78
15,COc1ccc(-c2cc(=O)c3ccccc3o2)cc1 [4'-METHOXYFLAVONE],682
16,O=C1O[C@H]([C@@H](O)CO)C(O)=C1O [ASCORBIC ACID],0.033
17,COc1ccc(O)c(C(C)(C)C)c1.COc1ccc(O)cc1C(C)(C)C [BUTYLATED HYDROXYANISOLE],0.019
18,O=C/C=C/c1ccccc1 [CINNAMALDEHYDE],372
19,O=C(O)/C=C/c1ccccc1 [CINNAMIC ACID],1730
20,O=C(O)/C=C/c1ccc(O)cc1 [COUMARIC ACID],18.4
21,O=Cc1ccco1 [FURFURAL],215
22,O=C(O)c1cc(O)c(O)c(O)c1 [GALLIC ACID],0.011
23,COc1c(-c2ccccc2)oc2c(ccc3occc32)c1=O [KARANJIN],4.23
24,O=C1C[C@@H](c2ccccc2)Oc2cc(O)cc(O)c21 [PINOCEMBRIN],59.3
25,COc1c(C(=O)/C=C(\O)c2ccccc2)ccc2occc12 [PONGAMOL],11.6
26,O=Cc1ccccc1O [SALICYLADEHYDE],96.6
27,Cc1c(C)c2c(c(C)c1O)CCC(C)(C(=O)O)O2 (stereo unspecified) [TROLOX],0.012

# The next lines start with the values.
row,IC50 [mM],Structure (SMILES)
1,0.094,O=c1c(O)c(-c2ccc3c(c2)OCO3)oc2ccccc12
2,0.725,O=c1cc(-c2ccc(Cl)cc2)oc2ccccc12
3,0.022,CN(C)c1ccc(-c2oc3ccccc3c(=O)c2O)cc1
4,0.663,O=c1c(O)c(-c2ccc(Cl)cc2)oc2ccccc12
5,0.709,CC(C)(C)c1ccc(-c2oc3cc(O)cc(O)c3c(=O)c2O)cc1
6,0.452,CC(C)(C)Oc1ccc(-c2oc3cc(O)cc(O)c3c(=O)c2O)cc1
7,0.612,CN(C)c1ccc(-c2oc3cc(O)cc(O)c3c(=O)c2O)cc1
8,11,CC(C)c1ccc(-c2oc3ccccc3c(=O)c2O)cc1
9,29.6,CC(C)c1ccc(-c2cc(=O)c3c(O)cc(O)cc3o2)cc1
10,27.8,O=c1c(O)c(-c2ccc(Cl)cc2)oc2cc(O)cc(O)c12
11,0.114,COc1ccc(-c2oc3ccccc3c(=O)c2O)cc1
12,0.387,O=c1c(O)c(-c2ccccc2)oc2ccccc12 [FLAVONOL]
13,0.191,O=c1c(O)c(-c2ccccc2)oc2cc(O)cc(O)c12 [GALANGIN]

# From ChEMBL document CHEMBL3351737, “Design, synthesis and exploring the quantitative structure-activity relationship of some antioxidant flavonoid analogues” (Bioorg Med Chem Lett, 2014)
